Reference: patent US10208288B2, “Differentiation of human embryonic stem cells into pancreatic endocrine cells” (Janssen Biotech, Inc., priority 2012, dated 2019)

Tested on: cells of the human embryonic stem cell line H1 differentiated to stage 6
Experiment: Phase contrast imaging of endocrine cluster formation in stage 6 cultures
Format: cell-based
Protocol: Cells of the human embryonic stem cell line H1 (hESC H1, passage 40) were seeded as single cells at 1×10^5 cells/cm^2 on MATRIGEL™ (1:30 dilution; BD Biosciences, NJ) coated dishes in mTeSR®1 media (StemCell Technologies, Vancouver, Canada) supplemented with 10 μM of Y27632. Forty-eight hours post seeding, cultures were washed in incomplete PBS (phosphate buffered saline without Mg or Ca). Cultures were differentiated into pancreatic endoderm/endocrine lineages as follows: • a) Stage 1 (Definitive Endoderm (DE)—3 days): Cells were cultured for one day in stage 1 media (see Example 1, above). Cells were then cultured for an additional day in MCDB-131 medium supplemented with 0.1% fatty acid-free BSA, 0.0012 g/ml sodium bicarbonate, 1× GlutaMax™, 4.5 mM D-Glucose, 100 ng/ml GDF8, and 0.1 μM MCX compound. Cells were then cultured for an additional day in MCDB-131 medium supplemented with 0.1% fatty acid-free BSA, 0.0012 g/ml sodium bicarbonate, 1× GlutaMax™, 4.5 mM D-Glucose, and 100 ng/ml GDF8, then • b) Stage 2 (Primitive gut tube—2 days): Cells were treated for two days with MCDB-131 medium supplemented with 0.1% fatty acid-free BSA; 0.0012 g/ml sodium bicarbonate; 1× GlutaMax™; 4.5 mM D-Glucose; 0.25 mM ascorbic acid (Sigma, Mo.) and 25 ng/ml FGF7 (R & D Systems, MN), then • c) Stage 3 (Foregut—2 days): Cells were treated with MCDB-131 medium supplemented with a 1:200 dilution of ITS-X (Invitrogen, Ca); 4.5 mM Glucose; 1× GlutaMax™; 0.0017 g/ml sodium bicarbonate; 2% fatty acid-free BSA; 0.25 μM SANT-1 (Sigma, Mo.); 10 ng/ml of Activin-A (R& D Systems, MN); 1 μM RA (Sigma, Mo.); 25 ng/ml FGF7; 0.25 mM ascorbic acid; 200 nM TPB (PKC activator; Catalog No. 565740; EMD Chemicals, Gibstown, N.J.); 10 μM forskolin (FSK, Sigma, Mo.), and 100 nM LDN (BMP receptor inhibitor; Catalog No. 04-0019; Stemgent, Calif.) for day 1. […]

For CCCCCCCCCCCCC/C=C/[C@@H](O)[C@@H](N)COP(=O)(O)O [S1P, sphingosine-1-phosphate], the “time at which endocrine clusters emerged after start of stage 6” value (10 μM added for three days at stage 6, FIG. 6A, 6B) was 3 days, the “formation of clusters earlier than in control cultures” value (10 μM at stage 6, vs control cultures) was “about 7 days” and the “clustering of endocrine cells” value (S6 cultures, day 7, phase contrast, FIG. 4B) was “clear evidence of clustering of endocrine cells”. The “appearance of endocrine clusters” value (S6 cultures, day 10, phase contrast, FIG. 4C, 4D) was “clusters were separated from each other by a thin layer of pancreatic endoderm epithelium”.
